This passage reports Activity, IC50 and inhibition results from ChEMBL document CHEMBL1137509, “Taxodistines A and B, abietane-type diterpenes from Taxodium distichum” (Bioorg Med Chem Lett, 2007).

Converted amounts (≈) assume the structure as drawn. The source made the active and inactive calls. The rule behind the calls is not given here.

For experiment [1], the target named is T1, Tubulin (Homo sapiens) (UniProt P68371+Q9H4B7+P0DPH7+P68366+Q13509+Q71U36+P04350+Q3ZCM7+P07437+P68363+Q9BQE3+Q6PEY2+Q13885+Q9BVA1+Q9BUF5). Nature of the experiment: Inhibition of tubulin polymerization at 200 uM after 30 mins. Type of experiment: protein-complex assay.
For experiment [2], the system named is P388. Nature of the experiment: Cytotoxicity against mouse P388 cells. Type of experiment: functional, cell-based.
Experiment [3] addresses T1, Tubulin (Homo sapiens). Nature of the experiment: Inhibition of tubulin polymerization at 100 uM after 30 mins. Type of experiment: protein-complex assay.

Regarding `CO[C@@H]1c2cc(C(C)C)c(O)c(O)c2[C@@]2(C)CCCC(C)(C)[C@@H]2[C@H]1O` [TAXODISTINE A], the result in experiment [1] was inactive. The IC50 in experiment [2] is 0.43 µg/mL (≈ 1.23 µM). Molecule `CO[C@@H]1c2cc(C(C)C)c(O)cc2[C@@]2(C)CCCC(C)(C)[C@@H]2[C@H]1O` [TAXODISTINE B] came in with a half-maximal inhibitory concentration (IC50) in experiment [2] of 6.5 µg/mL (≈ 19.5 µM). The molecule further showed an inhibition in experiment [3] of 90%. Molecule `CC(C)C1=CC2=CC(=O)[C@H]3C(C)(C)CCC[C@]3(C)C2=C(O)C1=O` had an inhibition in experiment [3] of 45%.

As usually defined, the IC50 is the concentration that gives 50% inhibition. As usually defined, the inhibition is the percentage by which the read-out fell short of the control. Low readings indicate little suppression, high ones strong suppression.
